The nature of data set [1]: mRNA encapsulation efficiency of LNP by Ribogreen assay. Format: physicochemical. As to conditions: LNP: 50% cationic lipid, 38.5% cholesterol, 10% DSPC, 1.5% DMG-PEG2000; Ffluc mRNA. As for the experimental part: (§1) 1. The cationic lipid (50 mg/mL) prepared in the above examples of the present disclosure, cholesterol (20 mg/mL), DSPC (20 mg/mL) and DMG-PEG2000 (20 mg/mL) were dissolved in ethanol, and the solution was placed in a 55° C. metal thermostatic bath as needed to aid dissolution, to obtain a lipid mixture with the following molar composition: 1.5% DMG-PEG2000, 50% cationic lipid, 38.5% cholesterol, and 10% DSPC.
(§2) 2. The mRNA encoding Ffluc was diluted with 10 mM pH 4.0 citrate buffer to prepare a 0.2 mg/mL mRNA solution.
(§3) 3. The lipid mixture prepared in step 1 was mixed with the mRNA solution prepared in step 2 using a syringe pump with a tee at a total flow rate of 40 mL/min.
(§4) 4. The LNP mixture was collected after the three-way mixing and placed in a dialysis bag with a molecular weight cut-off of 100 KDa.
(§5) 5. The LNP mixture was dialyzed overnight against 50 mM Tris-buffered saline, pH 7.4.
(§6) 6. Sieving, and subsequent measurement of the sieved LNP to measure the PDI of the LNP by dynamic laser light scattering; to measure the mRNA encapsulation efficiency and concentration by Ribogreen assay; and to measure the pKa by TNS-α assay.

A short description of data set [2]: LNP size and PDI by dynamic laser light scattering. As to conditions: LNP: 50% cationic lipid, 38.5% cholesterol, 10% DSPC, 1.5% DMG-PEG2000; Ffluc mRNA. Format: physicochemical. How it is done:
as §1, §2, §3, §4, §5, §6

The test system of the next data set is mice. The data set can be described thus: In vivo delivery of Ffluc mRNA LNP in mice, intravenous administration, luminescence relative to MC3. The arrangement: species or system mice (female Balb/C). The note with it: fold change in luminescence intensity relative to MC3; 0.06 mg/kg tail vein; 6 h after injection. As for the experimental part: The prepared encapsulation solution was applied to mice in the following manner, and its delivery efficiency in mice was tested. Among them, DLin-MC3-DMA (MC3) was a cationic liposome for delivering small nucleic acids that was approved by the FDA for marketing in 2018, which has high nucleic acid drug delivery efficiency and biosafety, and was usually used as the industry gold standard in the screening process of cationic lipids. In the evaluation of mice experiments, the ratio of nucleic acid delivery efficiency normalized to MC3 was greater than 0.1, which was considered to be a cationic lipid with high delivery efficiency.
1. The LNP solution was diluted with 50 mM TBS, pH 7.4 to a concentration of 0.1 mg/mL mRNA.
2. The mice involved in this study were female Balb/C, weighing 18-22 g, 6-8 weeks old, with 5 mice in each group.
3. The dosing solution was kept at 4° C. prior to injection.
4. Each mice received 0.06 mg/kg via tail vein injection.
5. The mice were injected intraperitoneally with 200 μL of 1.5 mg/mL D-luciferin solution 6 h after injection.
6. The in vivo luminescence images of the mice were obtained using the IVIS system (Aniview).
7. The luminescence intensity of each mice was measured using Aniview software.
8. MC3 lipid nanoparticles were used as a positive control. The in vivo efficacy of each cationic lipid tested was recorded as the fold change in luminescence intensity relative to MC3 (ratio normalized to MC3).

For the compound `CCCCC/C=C\C/C=C\CCCCCCCC(=O)OCC(COC(=O)/C=C(\CCCCCC)CCCCCCC)COC(=O)OCC1CCN(CC)CC1` (stereo not drawn) [CPL-449, 3-((((1-ethylpiperidin-4-yl)methoxy)carbonyl)oxy)-2-((((E)-3-hexyldec-2-enoyl)oxy)methyl)propyl(9Z,12Z)-octadeca-9,12-dienoate], the “Encapsulation Rate” value in data set [1] is reported as 97%. Moreover, in data set [2], the PDI is 0.0875 and the “Size (nm)” value stood at 73.57 nm. For the same compound, the “In Vivo Efficacy Normalized To Mc3 In Mice (Intravenous Injection)” value in the data set with mice came to 0.49.

For `CCCCCCC/C(=C/C(=O)OCCCCCN(CCCO)CCCCCOC(=O)/C=C(\CCCC)CCCCCCC)CCCC` [CPL-052, ((3-hydroxypropyl)azanediyl)bis(pentane-5,1-diyl) (2E,2′E)-bis(3-butyldec-2-enoate)], in data set [1], the “Encapsulation Rate” value was found to be 93%. Further, in data set [2], the PDI worked out at 0.1162 and the “Size (nm)” value stood at 90.76 nm. Moreover, the “In Vivo Efficacy Normalized To Mc3 In Mice (Intravenous Injection)” value with mice amounted to 1.46.

As for `CCCCC/C=C\C/C=C\CCCCCCCC(=O)OCC(COC(=O)/C=C(\CCCC)CCCCCCC)COC(=O)OCC(C)(C)CN(C)C` (stereo not drawn) [CPL-316, 3-(((E)-3-butyldec-2-enoyl)oxy)-2-((((3-(dimethylamino)-2,2-dimethylpropoxy)carbonyl)oxy)methyl)propyl(9Z,12Z)-octadeca-9,12-dienoate], in data set [1], the “Encapsulation Rate” value came out at 93%. In addition, in data set [2], the PDI amounted to 0.1387 and the “Size (nm)” value was 75.82 nm.

`CCCCC/C=C\C/C=C\CCCCCCCC(=O)OCC(COC(=O)C=C(CCCCCCCCCC)CCCCCCCCCC)COC(=O)OCCCN(C)C` (stereo not drawn) [CPL-234, 3-((3-decyltridec-2-enoyl)oxy)-2-((((3-(dimethylamino)propoxy)carbonyl)oxy)methyl)propyl(9Z,12Z)-octadeca-9,12-dienoate]: the “In Vivo Efficacy Normalized To Mc3 In Mice (Intravenous Injection)” value in the data set on mice is reported as 0.96.

For the compound `CCCCCCCC/C(=C/C(=O)OCCCCCN(CCCO)CCCCCOC(=O)/C=C(\CCCC)CCCCCCCC)CCCC` [CPL-043, ((3-hydroxypropyl)azanediyl)bis(pentane-5,1-diyl)(2E,2′E)-bis(3-butylundec-2-enoate)], the “Encapsulation Rate” value in data set [1] worked out at 95%. Also, in data set [2], the PDI was determined as 0.1723 and the “Size (nm)” value is listed as 77.48 nm. In the data set with mice, the “In Vivo Efficacy Normalized To Mc3 In Mice (Intravenous Injection)” value was 1.58.

`CCCCCCCC/C(=C/C(=O)OCCCCCCN(CCCO)CCCCCCOC(=O)/C=C(\CCCC)CCCCCCCC)CCCC` [CPL-065, ((3-hydroxypropyl)azanediyl)bis(hexane-6,1-diyl) (2E,2′E)-bis(3-butylundec-2-enoate)]: the “Encapsulation Rate” value in data set [1] is 95%. In addition, in data set [2], the PDI is recorded as 0.1898 and the “Size (nm)” value stood at 83.7 nm. In the data set on mice, the “In Vivo Efficacy Normalized To Mc3 In Mice (Intravenous Injection)” value came out at 1.62.

Take `CCCCCC/C(=C/C(=O)OCCCCCCCN(CCCO)CCCCCCCOC(=O)/C=C(\CCCCC)CCCCCC)CCCCC` [CPL-090, ((3-hydroxypropyl)azanediyl)bis(heptane-7,1-diyl) (2E,2′E)-bis(3-pentylnon 2-enoate)]: the “Encapsulation Rate” value in data set [1] is given as 94%. For the same compound, in data set [2], the PDI is on record as 0.1615 and the “Size (nm)” value is reported as 85.28 nm. Also, the “In Vivo Efficacy Normalized To Mc3 In Mice (Intravenous Injection)” value in the data set on mice was determined as 2.02.

Take `CCCCC/C=C\C/C=C\CCCCCCCC(=O)OCC(COC(=O)/C=C(\CCCC)CCCCC)COC(=O)OCC(C)(C)CN(C)C` (stereo not drawn) [CPL-309, 3-(((E)-3-butyloct-2-enoyl)oxy)-2-((((3-(dimethylamino)-2,2-dimethylpropoxy)carbonyl)oxy)methyl)propyl(9Z,12Z)-octadeca-9,12-dienoate]: the “Encapsulation Rate” value in data set [1] is recorded as 93%. In data set [2], the PDI was 0.0937 and the “Size (nm)” value amounted to 76.44 nm.

As to `CCCCCCCCCC/C(=C/C(=O)OCCCCCN(CCCO)CCCCCOC(=O)/C=C(\CCCCC)CCCCCCCCCC)CCCCC` [CPL-048, ((3-hydroxypropyl)azanediyl)bis(pentane-5,1-diyl) (2E,2′E)-bis(3-pentyltridec-2-enoate)], the “Encapsulation Rate” value in data set [1] stood at 94%. For the same compound, in data set [2], the PDI was determined as 0.2409 and the “Size (nm)” value was 110.1 nm. In the data set on mice, the “In Vivo Efficacy Normalized To Mc3 In Mice (Intravenous Injection)” value came to 1.57.

Take `CCCCC/C=C\C/C=C\CCCCCCCC(=O)OCC(COC(=O)/C=C(\CCCCC)CCCCCCCCCC)COC(=O)OCCC1CCN(C)CC1` (stereo not drawn) [CPL-290]: in data set [1], the “Encapsulation Rate” value is listed as 98%. In data set [2], the PDI was found to be 0.1615 and the “Size (nm)” value is 105.5 nm.

Take `CCCCC/C=C\C/C=C\CCCCCCCC(=O)OCC(COC(=O)/C=C(\CCCCC)CCCCCCCC)COC(=O)OCCC1CCN(C)CC1` (stereo not drawn) [CPL-289, 3-(((2-(1-methylpiperidin-4-yl)ethoxy)carbonyl)oxy)-2-((((E)-3-pentylundec-2-enoyl)oxy)methyl)propyl(9Z,12Z)-octadeca-9,12-dienoate]: in data set [1], the “Encapsulation Rate” value was determined as 97%. In data set [2], the PDI was 0.1371 and the “Size (nm)” value turned out to be 83 nm.

In the case of `CCCCC/C=C\C/C=C\CCCCCCCC(=O)OCC(COC(=O)/C=C(\CCC)CCCCCC)COC(=O)OCCC1CCN(C)CC1` (stereo not drawn) [CPL-280, 3-(((2-(1-methylpiperidin-4-yl)ethoxy)carbonyl)oxy)-2-((((E)-3-propylnon-2-enoyl)oxy)methyl)propyl(9Z,12Z)-octadeca-9,12-dienoate], in data set [1], the “Encapsulation Rate” value stood at 97%. Besides, in data set [2], the PDI is recorded as 0.2607 and the “Size (nm)” value is 119.6 nm.

As to `CCCCC/C=C\C/C=C\CCCCCCCC(=O)OCC(COC(=O)C=C(CCCCCCCCCC)CCCCCCCCCC)COC(=O)OCC(C)(C)CN(C)C` (stereo not drawn) [CPL-322, 3-((3-decyltridec-2-enoyl)oxy)-2-((((3-(dimethylamino)-2,2-dimethylpropoxy)carbonyl)oxy)methyl)propyl(9Z,12Z)-octadeca-9,12-dienoate], the “Encapsulation Rate” value in data set [1] is 94%. Moreover, in data set [2], the PDI is on record as 0.1302 and the “Size (nm)” value came out at 96.21 nm.

As for “3-((((2-(dimethylamino)ethoxy)carbonyl)oxy)-2-((((E)-3-hexylundec-2-enoyl)oxy)methyl)propyl(97,127)-octadeca-9,12-dienoate [CPL-203]”, the “In Vivo Efficacy Normalized To Mc3 In Mice (Intravenous Injection)” value with mice turned out to be 0.23.

Consider `CCCCC/C=C\C/C=C\CCCCCCCC(=O)OCC(COC(=O)/C=C(\CCCCC)CCCCCC)COC(=O)OCCCN1CCN(C)CC1` (stereo not drawn) [CPL-398, 3-(((3-(4-methylpiperazin-1-yl)propoxy)carbonyl)oxy)-2-((((E)-3-pentylnonan-2-enoyl)oxy)methyl)propyl(9Z,12Z)-octadeca-9,12-dienoate], for which the “Encapsulation Rate” value in data set [1] was 97%. In addition, in data set [2], the PDI was 0.0778 and the “Size (nm)” value is reported as 115.7 nm.

Take `CCCCCCCCCC/C(=C/C(=O)OCCCCCN(CCCO)CCCCCOC(=O)/C=C(\CCCC)CCCCCCCCCC)CCC` [CPL-1092]: the “In Vivo Efficacy Normalized To Mc3 In Mice (Intravenous Injection)” value in the data set on mice is reported as 0.83.

For the compound `CCCCC/C=C\C/C=C\CCCCCCCC(=O)OCC(COC(=O)/C=C(\CCCCCCC)CCCCCCCC)COC(=O)OCCN(C)C` (stereo not drawn) [CPL-208, 3-(((2-(dimethylamino)ethoxy)carbonyl)oxy)-2-((((E)-3-heptylundec-2-enoyl)oxy)methyl)propyl(9Z,12Z)-octadeca-9,12-dienoate], the “Encapsulation Rate” value in data set [1] is recorded as 95%. In data set [2], the PDI came out at 0.2382 and the “Size (nm)” value turned out to be 96.3 nm.

Consider `CCCCC/C=C\C/C=C\CCCCCCCC(=O)OCC(COC(=O)/C=C(/CCCCCCCC)CCCCCCCCCC)COC(=O)OCCCN1CCN(C)CC1` (stereo not drawn) [CPL-409, 3-(((3-(4-methylpiperazin-1-yl)propoxy)carbonyl)oxy)-2-((((Z)-3-octyltridec-2-enoyl)oxy)methyl)propyl(9Z 12Z)-octadeca-9,12-dienoate], for which the “Encapsulation Rate” value in data set [1] amounted to 96%. In addition, in data set [2], the PDI is recorded as 0.1474 and the “Size (nm)” value was found to be 94.97 nm.

On to `CCCCCC/C(=C/C(=O)OCCCCCCCCN(CCO)CCCCCCCCOC(=O)/C=C(\CCCC)CCCCCC)CCCC` [CPL-455-01, ((2-hydroxyethyl)azanediyl)bis(octane-8,1-diyl) (2E,2′E)-bis(3-butylnon-2-enoate)], for which the “Encapsulation Rate” value in data set [1] was determined as 85%. For the same compound, in data set [2], the PDI is recorded as 0.1065 and the “Size (nm)” value stood at 69.76 nm.

These data come from patent publication US20250214925A1, “CATIONIC LIPID, LIPOSOME, LIPID NANOPARTICLE, AND USE” (CARCELL BIOPHARMA LTD., priority 2022, published 2025).
